Data taken from US20220193076A1, “METHODS OF TREATING BREAST CANCER WITH TUCATINIB” (Seagen Inc., priority 2019, published 2022).

How the values were obtained:
CYP2C9 = CYP2C9 (Homo sapiens, UniProt P11712); test: Ki determination in pooled human liver microsomes, diclofenac 4'-hydroxylase (Example 5); type: in vitro ADME; set-up: endogenous in cells; host or cells: healthy human subjects, in vivo
Procedure: The objective of this study was to evaluate in vitro the Ki of tucatinib of the following human hepatic cytochrome P450 (CYP) enzymes (CYP2C8, CYP2C9, and CYP3A4) and UGT1A1. […] Pooled human liver microsomes (HLM) from 150 individuals (79 males and 71 females) were obtained from BioreclamationIVT (Baltimore, Md.) and stored at approximately −70° C. The microsomes were characterized by the supplier for total protein and selected cytochrome P450 activities. […] The final organic solvent contribution was ≤1%. Incubations were terminated by the addition of chilled acetonitrile containing a stable isotope-labeled internal standard. […] Samples were analyzed by liquid chromatography with tandem mass spectrometry (LC-MS/MS). Analyte concentrations were quantified by LC-MS/MS and interpolated from standard curves of authentic analyte. […] Activities were calculated based on analyte concentration, incubation time, and protein concentration. Enzymatic activity (pmol/minute/mg protein) was expressed as the formation of the analyte per final protein concentration per incubation time. Activity remaining was expressed as the enzymatic activity at each concentration point of the test article normalized by the solvent control mean activity. […]

CYP2C8 = target: T1, CYP2C8 (Homo sapiens, UniProt P10632); test: Example 2 Part D: effect of tucatinib on PK of substrate probe repaglinide; type: in vivo; set-up: endogenous in cells; host or cells: healthy human subjects, in vivo; settings: steady-state tucatinib 300 mg BID, probe repaglinide
T1 sequence (P10632 1-490): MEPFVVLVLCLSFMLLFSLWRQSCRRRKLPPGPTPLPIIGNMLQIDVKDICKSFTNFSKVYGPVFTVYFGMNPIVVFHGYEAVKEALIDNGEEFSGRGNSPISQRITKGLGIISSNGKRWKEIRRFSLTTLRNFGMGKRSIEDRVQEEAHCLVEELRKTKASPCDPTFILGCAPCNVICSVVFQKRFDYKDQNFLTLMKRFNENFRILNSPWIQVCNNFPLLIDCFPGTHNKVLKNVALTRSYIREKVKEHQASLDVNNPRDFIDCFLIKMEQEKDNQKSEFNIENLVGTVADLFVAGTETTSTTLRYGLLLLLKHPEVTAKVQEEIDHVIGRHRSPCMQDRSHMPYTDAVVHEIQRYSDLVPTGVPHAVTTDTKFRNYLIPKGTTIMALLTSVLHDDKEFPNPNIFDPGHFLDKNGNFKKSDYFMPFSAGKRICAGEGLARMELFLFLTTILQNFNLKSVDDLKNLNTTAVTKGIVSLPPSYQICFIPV
Procedure: A Phase 1, open-label, fixed-sequence, 5-part, drug-drug interaction study of tucatinib was conducted to evaluate the effects of CYP3A4 and CYP2C8 inhibition and induction on the pharmacokinetics of tucatinib and to evaluate the effects of tucatinib on the pharmacokinetics of substrates of CYP3A4, CYP2C8, CYP2C9, and P-glycoprotein in healthy male and female subjects.
Part B evaluates the effect of rifampin, a strong inducer of CYP3A4 and CYP2C8, on the PK of tucatinib. […] Part E evaluates the effect of tucatinib on the PK of a substrate probe of the transporter P-gp (digoxin). […] For Parts A, B, and C, tucatinib is given as a single oral dose because evaluating plasma exposures after a single dose of tucatinib is expected to provide an appropriate assessment of the impact of the probe drugs on tucatinib PK. In Parts D and E, tucatinib is given as a multiple-dosing regimen in order to examine its effects on probe drugs at steady state, at which maximal inhibition of CYP2C8, CYP2C9, CYP3A4, and P-gp by tucatinib should be achieved.
Secondary objectives of the study included: (1) assessing the safety and tolerability of tucatinib when administered alone and when co-administered with substrate probes of CYP2C8, CYP2C9, and CYP3A4; and (2) assessing the single-dose PK of tucatinib and assessing the multiple-dose, steady-state PK of tucatinib alone and in the presence of substrate probes of CYP2C8, CYP2C9, and CYP3A4 in healthy subjects.
They were discharged on Day 14 after completion of the in-patient assessments.
On Day 1, each subject received a single oral dose of 0.5 mg of repaglinide. […] From Day 4 to Day 13, each subject received oral doses of 300 mg of tucatinib, twice daily (BID). On Day 11, each subject received a single oral dose of repaglinide. […] Tucatinib was provided as 150-mg tablets (2 tablets for the 300-mg dose), repaglinide was provided as 0.5-mg tablets, olbutamide was provided as 500-mg tablets, and midazolam was provided as a syrup (2 mg/mL; 1 mL syrup for the 2-mg dose). Tucatinib, repaglinide, olbutamide and midazolam were administered before meals preceded by an at least 8-hour overnight fast.
Other noncompartmental PK parameters may be reported. Additionally, blood samples for determination of plasma concentrations of tucatinib and ONT-993 were collected at the time points indicated in FIG. 8. […] A single genotyping blood sample was collected to assess possible effect of CYP polymorphisms or other genetic polymorphisms on the magnitude of drug interactions of tucatinib with probe drugs and substrates.

MATE1/2K = test: Phase 1 drug-drug interaction study: effect of tucatinib on metformin pharmacokinetics (Example 1); settings: healthy subjects, tucatinib 300 mg bid

CYP2C9, sequence (P11712 whole entry): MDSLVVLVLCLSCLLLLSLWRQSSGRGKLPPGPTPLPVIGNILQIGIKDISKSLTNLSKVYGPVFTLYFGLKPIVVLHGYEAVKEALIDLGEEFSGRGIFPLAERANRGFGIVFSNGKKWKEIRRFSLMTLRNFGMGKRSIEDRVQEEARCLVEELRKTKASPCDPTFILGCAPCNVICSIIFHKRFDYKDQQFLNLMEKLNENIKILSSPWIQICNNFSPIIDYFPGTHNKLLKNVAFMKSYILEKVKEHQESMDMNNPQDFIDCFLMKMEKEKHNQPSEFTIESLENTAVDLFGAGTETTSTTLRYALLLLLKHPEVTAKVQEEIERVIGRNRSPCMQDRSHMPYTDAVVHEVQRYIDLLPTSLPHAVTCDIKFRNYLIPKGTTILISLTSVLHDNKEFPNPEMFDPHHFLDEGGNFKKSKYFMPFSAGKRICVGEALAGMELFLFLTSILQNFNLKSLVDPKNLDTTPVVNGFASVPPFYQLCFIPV

Cc1cc(Nc2ncnc3ccc(NC4=NC(C)(C)CO4)cc23)ccc1Oc1ccn2ncnc2c1 [tucatinib]
Inhibition mechanism, CYP2C9 (CYP2C9): competitive inhibition | Ki (CYP2C9; marker substrate diclofenac): 4.57 µM | Inhibition of CYP2C8 in vivo (CYP2C8): weak inhibitor | Inhibition of the renal OCT2/MATE1/MATE2-K pathway in vivo (MATE1/2K): weak inhibitor
